Assays:
Assay type in all cases: cell-based
[1] = system: Staphylococcus lugdunensis; assay: MIC of baseline clinical isolates (Example 8); details: Staphylococcus lugdunensis baseline isolates (N′ = 3), central laboratory, mITT
Summary of the method: (§1)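 Isolates came from samples taken on Day 1 and at any later surgery at the index site: infected bone or tissue next to implants, deep infection-site swabs, and superficial tissue, wound closure or sinus tract. Local clinical laboratories analysed parallel sample sets to guide antibiotic treatment.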

Actinomyces turicensis = assay: MIC of baseline clinical isolates (Example 8); details: Actinomyces turicensis baseline isolates (N′ = 1), central laboratory, mITT
Summary of the method: as §1

Staphylococcus hominis = assay: MIC of baseline clinical isolates (Example 8); details: Staphylococcus hominis baseline isolates (N′ = 1), central laboratory, mITT
Summary of the method: as §1

Clostridium sphenoides = assay: MIC of baseline clinical isolates (Example 8); details: Clostridium sphenoides baseline isolates (N′ = 1), central laboratory, mITT
Summary of the method: as §1

Peptoniphilus gorbachii = assay: MIC of baseline clinical isolates (Example 8); details: Peptoniphilus gorbachii baseline isolates (N′ = 1), central laboratory, mITT
Summary of the method: as §1

[2] = system: non-speciated Anaerococcus; assay: MIC of baseline clinical isolates (Example 8); details: Anaerococcus non-speciated baseline isolates (N′ = 1), central laboratory, mITT
Summary of the method: as §1

F. magna = assay: MIC of baseline clinical isolates (Example 8); details: Finegoldia magna baseline isolates (N′ = 4), central laboratory, mITT
Summary of the method: as §1

Staphylococcus arlettae = assay: MIC of baseline clinical isolates (Example 8); details: Staphylococcus arlettae baseline isolates (N′ = 1), central laboratory, mITT
Summary of the method: as §1

S. epidermidis = assay: MIC of baseline clinical isolates (Example 8); details: Staphylococcus epidermidis baseline isolates (N′ = 5), central laboratory, mITT
Summary of the method: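 Deep and superficial specimens from the index site (infected bone, tissue adjacent to implants, deep-site swabs, wound closure or sinus tract) were collected on Day 1. Collection was repeated at each later surgical procedure there.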

[3] = system: Staphylococcus haemolyticus; assay: MIC of baseline clinical isolates (Example 8); details: Staphylococcus haemolyticus baseline isolates (N′ = 1), central laboratory, mITT
Summary of the method: as §1

Anaerococcus murdochii = assay: MIC of baseline clinical isolates (Example 8); details: Anaerococcus murdochii baseline isolates (N′ = 1), central laboratory, mITT
Summary of the method: as §1

C. glabrata = assay: Broth microdilution MIC, yeast (Example 5); details: Nakaseomyces glabratus, FLUR
Experimental: (§2) Test and Comparator Agents: The test agents were stored at room temperature until assayed. All test agents were suspended and diluted in 100% dimethylsulfoxide (DMSO), and were ultimately tested at a final concentration of 0.06-64 μg/mL. The stock solutions were allowed to stand for at least 1 hr prior to use to auto-sterilize.
(§3) The susceptibility of yeast isolates was determined by broth microdilution in RPMI medium (HyClone Laboratories, Logan, UT; Lot No. AZC184041B) buffered with 0.165 M MOPS (Calbiochem, Billerica, MA; Lot No. 2694962). The pH of the medium was adjusted to 7.0 with 1 N NaOH, sterile filtered using a 0.2 μm PES filter, and stored at 4° C. until used.
(§4) Broth Microdilution MC Testing (Aerobic Bacteria and Yeast): The broth microdilution assay method employed for the susceptibility testing of aerobic bacteria (excluding N. gonorrhoeae which was evaluated by agar dilution) and yeast essentially followed the procedures described by CLSI (3, 4, 7, 8) and employed automated liquid handlers to conduct serial dilutions and liquid transfers. Automated liquid handlers included the Multidrop 384 (Labsystems, Helsinki, Finland) and Biomek 2000 (Beckman Coulter, Fullerton CA). The wells in columns 2-12 in standard 96-well microdilution plates (Costar 3795) were filled with 150 μl of the correct diluent. These would become the ‘mother plates’ from which ‘daughter’ or test plates would be prepared. The drugs (300 μL at 40× the desired top concentration in the test plates) were dispensed into the appropriate well in Column 1 of the mother plates. The Biomek 2000 was used to make serial two-fold dilutions through Column 11 in the “mother plate”. The wells of Column 12 contained no drug and ultimately served as the organism growth control wells.
(§5) The daughter plates were loaded with 185 μL per well of the appropriate test media using the Multidrop 384. The daughter plates were prepared using the Biomek FX which transferred 5 μL of drug solution from each well of a mother plate to the corresponding well of the correct daughter plate in a single step.
(§6) A standardized inoculum of each organism was prepared per CLSI methods (3, 7). Isolated colonies of each test isolate were picked from the primary plate and a suspension was prepared to equal a 0.5 McFarland turbidity standard. Standardized suspensions were then diluted […] (1:100 for yeast, 1:20 for bacteria). After dilution, the inoculum suspensions were then transferred to compartments of sterile reservoirs divided by length (Beckman Coulter), and the Biomek 2000 was used to inoculate all plates. Daughter plates were placed on the Biomek 2000 in reverse orientation so that plates were inoculated from low to high drug concentration.
(§7) The Biomek 2000 delivered 10 μL of standardized inoculum into each well of the appropriate daughter plate for an additional 1:20 dilution. […] The final concentration of DMSO (if used as a solvent) in the test well was 2.5%.
(§8) Plates were stacked 4 high, covered with a lid on the top plate, placed into plastic bags, and incubated at 35° C. for approximately 24-48 hr for all yeast isolates and 16-24 hr for aerobic bacteria. Plates were viewed from the bottom using a plate viewer. […] MIC endpoints for the test agents and control compounds were read per CLSI criteria (3, 7).

C. tropicalis = assay: Broth microdilution MIC, yeast (Example 5); details: Candida tropicalis, FLUR
Experimental: as §2, §3, §4, §5, §6, §7, §8

C. albicans = assay: Broth microdilution MIC, yeast (Example 5); details: Candida albicans, Sensitive
Experimental: as §2, §3, §4, §5, §6, §7, §8

C. parapsilosis = assay: Broth microdilution MIC, yeast (Example 5); details: Lodderomyces parapsilosis
Experimental: as §2, §3, §4, §5, §6, §7, §8

[4] = 24 h, C. parapsilosis MMX 7370, FLUR
[5] = 24 h, C. parapsilosis MMX 7555, FLUR
[6] = 48 h, C. parapsilosis MMX 7370, FLUR
[7] = 48 h, C. parapsilosis MMX 7555, FLUR
[8] = ATCC22019, 24 h, C. parapsilosis MMX 2323 (ATCC 22019), QC, 24 hr
[9] = ATCC22019, 48 h, C. parapsilosis MMX 2323 (ATCC 22019), QC, 48 hr

## CCC[C@@H]1C[C@@H](C(=O)N[C@@H]([C@H]2O[C@H](SC)[C@H](O)[C@@H](O)[C@H]2O)[C@H](C)Cl)N(C)C1 [CLI]
[1]
  Mean MIC: 0.03 µg/mL
  n (% resistant): 0 (0.0) n (%)
Actinomyces turicensis
  Mean MIC: 0.25 µg/mL
  n (% resistant): 0 (0.0) n (%)
Staphylococcus hominis
  Mean MIC: 0.12 µg/mL
  n (% resistant): 0 (0.0) n (%)
Clostridium sphenoides
  Mean MIC: 8.00 µg/mL
  n (% resistant): 1 (100.0) n (%)
Peptoniphilus gorbachii
  Mean MIC: 8.00 µg/mL
  n (% resistant): 1 (100.0) n (%)
[2]
  Mean MIC: 0.25 µg/mL
  n (% resistant): 0 (0.0) n (%)
F. magna
  Mean MIC: 4.38 µg/mL
  n (% resistant): 2 (50.0) n (%)
Staphylococcus arlettae
  Mean MIC: 0.25 µg/mL
  n (% resistant): 0 (0.0) n (%)
S. epidermidis
  Mean MIC: 3.66 µg/mL
  n (% resistant): 1 (20.0) n (%)
[3]
  Mean MIC: 8.00 µg/mL
  n (% resistant): 1 (100.0) n (%)
Anaerococcus murdochii
  Mean MIC: 8.00 µg/mL
  n (% resistant): 1 (100.0) n (%)

## C[C@H]1COc2c(N3CCN(C)CC3)c(F)cc3c(=O)c(C(=O)O)cn1c23 [Levofloxacin]
[1]
  MIC: 0.92 µg/mL
  n (% resistant): 0 (0.0) n (%)
Staphylococcus hominis
  MIC: 8 µg/mL
  n (% resistant): 1 (100.0) n (%)
Staphylococcus arlettae
  MIC: 0.5 µg/mL
  n (% resistant): 0 (0.0) n (%)
S. epidermidis
  MIC: 2.52 µg/mL
  n (% resistant): 2 (40.0) n (%)
[3]
  MIC: 8 µg/mL
  n (% resistant): 1 (100.0) n (%)

## OCC(S)CS.[Bi] (centres unmarked) [MB-2B, bismuth-2,3-dimercaptopropanol]
C. glabrata; 24 h, C. glabrata MMX 7086
  MIC: 0.5 µg/mL
C. glabrata; 24 h, C. glabrata MMX 7318
  MIC: 0.25 µg/mL
C. glabrata; 48 h, C. glabrata MMX 7086
  MIC: 1 µg/mL
C. glabrata; 48 h, C. glabrata MMX 7318
  MIC: 1 µg/mL
C. tropicalis; 24 h, C. tropicalis MMX 7247
  MIC: 2 µg/mL
C. tropicalis; 24 h, C. tropicalis MMX 7248
  MIC: 4 µg/mL
C. tropicalis; 24 h, C. tropicalis MMX 7360
  MIC: 1 µg/mL
C. tropicalis; 48 h, C. tropicalis MMX 7247
  MIC: 4 µg/mL
C. tropicalis; 48 h, C. tropicalis MMX 7248
  MIC: 4 µg/mL
C. tropicalis; 48 h, C. tropicalis MMX 7360
  MIC: 2 µg/mL
C. albicans; 24 h, C. albicans MMX 7039
  MIC: 2 µg/mL
C. albicans; 24 h, C. albicans MMX 7055
  MIC: 1 µg/mL
C. albicans; 48 h, C. albicans MMX 7039
  MIC: 2 µg/mL
C. albicans; 48 h, C. albicans MMX 7055
  MIC: 4 µg/mL
C. parapsilosis; [4]
  MIC: 0.5 µg/mL
C. parapsilosis; [5]
  MIC: 0.25 µg/mL
C. parapsilosis; [6]
  MIC: 0.5 µg/mL
C. parapsilosis; [7]
  MIC: 1 µg/mL
C. parapsilosis; [8]
  MIC: 0.5 µg/mL
C. parapsilosis; [9]
  MIC: 1 µg/mL

## CC(S)C(C)S.[Bi] (centres unmarked) [MB-6, bismuth-2,3-butanedithiol]
C. glabrata; 24 h, C. glabrata MMX 7086
  MIC: 0.5 µg/mL
C. glabrata; 24 h, C. glabrata MMX 7318
  MIC: 0.25 µg/mL
C. glabrata; 48 h, C. glabrata MMX 7086
  MIC: 1 µg/mL
C. glabrata; 48 h, C. glabrata MMX 7318
  MIC: 0.5 µg/mL
C. tropicalis; 24 h, C. tropicalis MMX 7247
  MIC: 4 µg/mL
C. tropicalis; 24 h, C. tropicalis MMX 7248
  MIC: 4 µg/mL
C. tropicalis; 24 h, C. tropicalis MMX 7360
  MIC: 2 µg/mL
C. tropicalis; 48 h, C. tropicalis MMX 7247
  MIC: 4 µg/mL
C. tropicalis; 48 h, C. tropicalis MMX 7248
  MIC: 8 µg/mL
C. tropicalis; 48 h, C. tropicalis MMX 7360
  MIC: 2 µg/mL
C. albicans; 24 h, C. albicans MMX 7055
  MIC: 2 µg/mL
C. albicans; 48 h, C. albicans MMX 7039
  MIC: 2 µg/mL
C. albicans; 48 h, C. albicans MMX 7055
  MIC: 2 µg/mL
C. parapsilosis; [4]
  MIC: 0.25 µg/mL
C. parapsilosis; [5]
  MIC: 0.25 µg/mL
C. parapsilosis; [6]
  MIC: 0.5 µg/mL
C. parapsilosis; [7]
  MIC: 0.5 µg/mL
C. parapsilosis; [8]
  MIC: 0.5 µg/mL
C. parapsilosis; [9]
  MIC: 1 µg/mL

## C[C@@H](O)[C@H]1C(=O)N2C(C(=O)O)=C(S[C@@H]3CN[C@H](C(=O)N(C)C)C3)[C@H](C)[C@H]12 [Meropenem]
Actinomyces turicensis
  n (% resistant): 0 (0.0) n (%)
Actinomyces turicensis; Schaalia turicensis
  MIC: 0.25 µg/mL
Clostridium sphenoides
  n (% resistant): 0 (0.0) n (%)
Clostridium sphenoides; Lacrimispora sphenoides
  MIC: 2 µg/mL
Peptoniphilus gorbachii
  MIC: 0.06 µg/mL
  n (% resistant): 0 (0.0) n (%)
[2]
  MIC: 0.25 µg/mL
  n (% resistant): 0 (0.0) n (%)
F. magna
  MIC: 0.06 µg/mL
  n (% resistant): 0 (0.0) n (%)
Anaerococcus murdochii
  MIC: 0.06 µg/mL
  n (% resistant): 0 (0.0) n (%)
